Assay results taken from ChEMBL document CHEMBL1681700, “Cytotoxic 3,6-bis((imidazolidinone)imino)acridines: synthesis, DNA binding and molecular modeling” (Bioorg Med Chem, 2011).
Activity calls are given as the source filed them. The calls are words filed in the database; no cut-off is given here.

Tests used:
Bos taurus [1] = species: Bos taurus; test: Inhibition of calf thymus topoisomerase 1-mediated supercoiled DNA relaxation at 5 uM after 45 mins by ethidium bromide staining agarose gel electrophoresis
Bos taurus [2] = species: Bos taurus; test: Inhibition of calf thymus topoisomerase 1-mediated supercoiled DNA relaxation at 40 uM after 45 mins by ethidium bromide staining agarose gel electrophoresis
L1210 [3] = test: Cytotoxicity against mouse L1210 cells after 72 hrs by trypan blue dye exclusion test; format: functional, cell-based; conditions: L1210, 72 h
HL-60 [4] = test: Cytotoxicity against human HL60 cells after 48 hrs by MTT assay; format: functional, cell-based; conditions: HL-60, 48 h
HL-60 [5] = test: Cytotoxicity against human HL60 cells after 72 hrs by MTT assay; format: functional, cell-based; conditions: HL-60, 72 h
L1210 [6] = test: Cytotoxicity against mouse L1210 cells after 48 hrs by trypan blue dye exclusion test; format: functional, cell-based; conditions: L1210, 48 h
HL-60 [7] = test: Cytotoxicity against human HL60 cells after 72 hrs by trypan blue dye exclusion test; format: functional, cell-based; conditions: HL-60, 72 h
L1210 [8] = test: Cytotoxicity against mouse L1210 cells after 72 hrs by MTT assay; format: functional, cell-based; conditions: L1210, 72 h
[9] = Octanol-water partition coefficient, log P of the compound; format: physicochemical
Calf thymus DNA [10] = test: Binding affinity to A:T base pair region of calf thymus DNA by UV-visible spectrophotometer; format: nucleic-acid assay; conditions: Bos taurus
L1210 [11] = test: Cytotoxicity against mouse L1210 cells after 48 hrs by MTT assay; format: functional, cell-based; conditions: L1210, 48 h
HL-60 [12] = test: Cytotoxicity against human HL60 cells after 48 hrs by trypan blue dye exclusion test; format: functional, cell-based; conditions: HL-60, 48 h
Calf thymus DNA [13] = test: Binding affinity to calf thymus DNA at pH 7.4 by UV-visible spectrophotometer; format: nucleic-acid assay; conditions: Bos taurus
Calf thymus DNA [14] = test: Binding affinity to C:G base pair region of calf thymus DNA by UV-visible spectrophotometer; format: nucleic-acid assay; conditions: Bos taurus
Calf thymus DNA [15] = test: Binding affinity to calf thymus DNA assessed as hypochromic effect by UV-visible spectrophotometer; format: nucleic-acid assay; parameters: concentration or dose not given beside the values; conditions: Bos taurus
U-937 = test: Induction of apoptosis in human U937 cells assessed as DNA fragmentation at 122 uM after 18 hrs by ethidium bromide staining agarose gel electrophoresis; format: functional, cell-based
HL-60 [16] = test: Drug uptake in human HL60 cells assessed as drug accumulation at 5 uM after 140 mins by fluorescence analysis; format: ADME, cell-based; conditions: hl-60, 140 min
HL-60 [17] = test: Drug uptake in human HL60 cells assessed as drug distribution in plasmatic membrane and cytosol at 5 uM after 4 hrs by fluorescence analysis; format: ADME, cell-based; conditions: hl-60, 4 h
HL-60 [18] = test: Drug uptake in human HL60 cells assessed as drug accumulation in nucleus at 5 uM after 24 hrs by fluorescence analysis; format: ADME, cell-based; conditions: hl-60, 24 h
HL-60 [19] = test: Antiproliferative activity against human HL60 cells assessed as cytostatic effect at 1 uM after 72 hrs; format: functional, cell-based
HL-60 [20] = test: Cytotoxicity against human HL60 cells at 3 to 10 uM after 72 hrs; format: functional, cell-based

CCCCN1C(=O)CN/C1=N\c1ccc2cc3ccc(/N=C4\NCC(=O)N4CCCC)cc3nc2c1
inhibition (Bos taurus [1]): inactive
inhibition (Bos taurus [2]): Active
IC50 (L1210 [3]): 27.3 µM
IC50 (HL-60 [4]): 13.7 µM
IC50 (HL-60 [5]): 16.4 µM
IC50 (L1210 [6]): 26.4 µM
IC50 (HL-60 [7]): 14.7 µM
IC50 (L1210 [8]): 26.1 µM
logP [9]: 4.1
Activity (Calf thymus DNA [10]): inactive
IC50 (L1210 [11]): 29.2 µM
IC50 (HL-60 [12]): 11.7 µM
K (Calf thymus DNA [13]): 4.2 ×10⁵ /M
Activity (Calf thymus DNA [14]): Active
Activity (Calf thymus DNA [15]): 50%
Activity (U-937): Active

CCCN1C(=O)CN/C1=N\c1ccc2cc3ccc(/N=C4\NCC(=O)N4CCC)cc3nc2c1.Cl
inhibition (Bos taurus [1]): inactive
inhibition (Bos taurus [2]): Active
IC50 (L1210 [3]): 65.4 µM
IC50 (HL-60 [4]): 74.1 µM
IC50 (HL-60 [5]): 95.7 µM
Drug uptake (HL-60 [16]): Not Active
Drug uptake (HL-60 [17]): Active
IC50 (L1210 [6]): 44.7 µM
IC50 (HL-60 [7]): 88.6 µM
IC50 (L1210 [8]): 68 µM
logP [9]: 3.21
Activity (Calf thymus DNA [10]): inactive
Drug uptake (HL-60 [18]): Not Active
IC50 (L1210 [11]): 45.8 µM
IC50 (HL-60 [12]): 70.6 µM
K (Calf thymus DNA [13]): 5.7 ×10⁵ /M
Activity (Calf thymus DNA [14]): Active
Activity (Calf thymus DNA [15]): 54%
Activity (U-937): Active

CCCCCN1C(=O)CN/C1=N\c1ccc2cc3ccc(/N=C4\NCC(=O)N4CCCCC)cc3nc2c1
inhibition (Bos taurus [1]): inactive
inhibition (Bos taurus [2]): Active
IC50 (L1210 [3]): 15.7 µM
IC50 (HL-60 [4]): 8.37 µM
IC50 (HL-60 [5]): 8.59 µM
IC50 (L1210 [6]): 12.4 µM
IC50 (HL-60 [7]): 7.18 µM
IC50 (L1210 [8]): 15.2 µM
logP [9]: 4.99
Activity (Calf thymus DNA [10]): inactive
IC50 (L1210 [11]): 13.7 µM
IC50 (HL-60 [12]): 5.31 µM
K (Calf thymus DNA [13]): 2.8 ×10⁵ /M
Activity (Calf thymus DNA [14]): Active
Activity (Calf thymus DNA [15]): 45%
Activity (U-937): Active

CCCCCCN1C(=O)CN/C1=N\c1ccc2cc3ccc(/N=C4\NCC(=O)N4CCCCCC)cc3nc2c1.Cl
inhibition (Bos taurus [1]): inactive
inhibition (Bos taurus [2]): Active
IC50 (L1210 [3]): 5.28 µM
IC50 (HL-60 [4]): 4.61 µM
IC50 (HL-60 [5]): 4.94 µM
Activity (HL-60 [19]): Active
Drug uptake (HL-60 [16]): Active
Activity (HL-60 [20]): Toxic
Drug uptake (HL-60 [17]): Active
IC50 (L1210 [6]): 4.31 µM
IC50 (HL-60 [7]): 2.12 µM
IC50 (L1210 [8]): 5.99 µM
logP [9]: 5.88
Activity (Calf thymus DNA [10]): inactive
Drug uptake (HL-60 [18]): Active
IC50 (L1210 [11]): 5.52 µM
IC50 (HL-60 [12]): 2.44 µM
K (Calf thymus DNA [13]): 1.9 ×10⁵ /M
Activity (Calf thymus DNA [14]): Active
Activity (Calf thymus DNA [15]): 47%
Activity (U-937): Active

CCN1C(=O)CN/C1=N\c1ccc2cc3ccc(/N=C4\NCC(=O)N4CC)cc3nc2c1
inhibition (Bos taurus [1]): inactive
inhibition (Bos taurus [2]): Active
IC50 (L1210 [3]): > 100 µM
IC50 (HL-60 [4]): 76.6 µM
IC50 (HL-60 [5]): 80.3 µM
IC50 (L1210 [6]): 91.7 µM
IC50 (HL-60 [7]): 85.2 µM
IC50 (L1210 [8]): > 100 µM
logP [9]: 2.17
Activity (Calf thymus DNA [10]): inactive
IC50 (L1210 [11]): > 100 µM
IC50 (HL-60 [12]): 83.8 µM
K (Calf thymus DNA [13]): 7.1 ×10⁵ /M
Activity (Calf thymus DNA [14]): Active
Activity (Calf thymus DNA [15]): 34%
Activity (U-937): Active
